Measurements from patent publication US20230339877A1, “Synthesis and Composition of Neurolenin D Mesylate and Related Compounds - New Drugs for the Treatment of Parasitic Nematode Infections in Humans, Animals and Plants” (Smith College, priority 2022, published 2023).
Counter-ions that a name gives are not always drawn.

How the values were obtained:
[1] = test system: adult female Brugia pahangi parasites (BP AF); assay: Killing of adult female Brugia pahangi parasites (BP AF) in culture; type: cell-based
Description: (§1) The drug was applied at 1, 2 and 3 parts per million (ppm) and was 100% effective at killing the parasites at all three concentrations. Even at 1 ppm, all parasites were killed within 90 hours after treatment. The control treatment is with 1, 2 and 3 ppm ethanol given to the parasites in culture under the same conditions. One adult female parasite treated with 1 ppm ethanol died at about 80 hours. This death is not experimentally significant as occasionally a parasite dies in culture without any drug treatment.

[2] = test system: adult male Brugia pahangi parasites (BP AM); assay: Killing of adult male Brugia pahangi parasites (BP AM) in culture; type: cell-based
Description: as §1, with “120” for “90”, “male” for “female”, “40” for “80”

microfilariae (larvae) = assay: Killing of microfilariae (larvae) produced following mating of adult parasites; type: cell-based, Brugia pahangi; details: repeated experiments
From the text: 100% of all adult male and female parasites are always killed upon treatment with NDM.

[3] = Biological activity assays for toxicity and mutagenicity; details: preliminary data
[4] = repeated in many separate trials

Compound: C=C1C(=O)O[C@@H]2C[C@H](C)/C=C\C(=O)[C@](C)(O)[C@@H](OS(C)(=O)=O)[C@@H](OC(=O)CC(C)C)[C@@H]12 [NDM, Neurolenin D Mesylate]
- time after treatment by which all parasites were killed ([1]; adult female BP in culture, 1 ppm): ≤ 90 h
- effective at killing the parasites ([1]; adult female BP in culture, drug applied at 1, 2 and 3 ppm, all three concentrations, FIG. 1): 100%
- speed of killing compared with other neurolenin derivatives ([1]; adult female BP, FIG. 1, at the endpoint 100% of worms killed): more slowly
- adult female parasites killed upon treatment [1, 4]: 100%
- time after treatment by which all parasites were killed ([2]; adult male BP in culture, 1 ppm): ≤ 120 h
- effective at killing the parasites ([2]; adult male BP in culture, drug applied at 1, 2 and 3 ppm, all three concentrations, FIG. 2): 100%
- speed of killing compared with other neurolenin derivatives ([2]; adult male BP, FIG. 2, at the endpoint 100% of worms killed): more slowly
- adult male parasites killed upon treatment [2, 4]: 100%
- microfilariae (larvae) killed (microfilariae (larvae)): 100%
- mutagenicity [3]: not toxic or mutagenic
- toxicity [3]: not toxic
